The test system of the first test is Sp2/0 cells. As to the kind of experiment: Effect of replacement compounds on the growth of Sp2/0 cells in CD Hybridoma medium without transferrin, three passages. The following applies: 5 μM; third passage. The class given is cell-based. The procedure:
The ability of replacement compounds to support cellular growth in the absence of transferrin was evaluated using Sp2/0 cells maintained in CD Hybridoma medium (Invitrogen Corporation, Carlsbad, Calif.).
Stock cultures containing 5 μg/mL human holo-transferrin were prepared in CD Hybridoma medium. For replacement compound evaluation, Sp2/0 cells were established at an initial viable cell density of 0.5×10^5 cells/mL in stationary culture using 75 cm^2 tissue culture flasks in a final volume of 20 mL. All cultures were maintained at 37° C. in humidified air containing 8% CO2. To eliminate transferrin carry-over effects, cells were subcultured at the same seeding density at 4 day intervals for a total of three passages. Positive control cultures contained 5 μg/mL human holo-transferrin while negative control cultures were established in the absence of either transferrin or replacement compound. Replacement compound stocks were prepared at 0.1M-0.2M in ddH2O and solubilized when necessary using 5N NaOH or HCl. Iron complexes were established using 0.2M replacement compound and iron stocks mixed 1:1 (v/v) and incubated for 5-10 minutes at 22° C. All solutions containing replacement compounds were filter sterilized using a 0.22 μm Millex-GV filter prior to addition to transferrin and serum-free media.
Except where otherwise noted, replacement compounds were evaluated either alone or in combination with ferric chloride or ferrous sulfate at 25 μM, 50 μM and 100 μM. Values in the table represent the mean percentage of control growth for duplicate cultures determined at the third passage.
When added to the medium formulation un-complexed, the replacement compound is listed alone, when added as a complex with a transition metal, the source of the transition metal is listed with the replacement compound.
As for Acetohydroxamic Acid•Ferric Chloride, the “mean percentage of control growth” value is on record as 40 percentage of control growth.

The test is the same for the next values; noted with them: 10 μM; third passage.
Acetohydroxamic Acid•Ferric Chloride: the “mean percentage of control growth” value is 48 percentage of control growth.

The same test, now with this note: 20 μM; third passage.
As for Acetohydroxamic Acid•Ferric Chloride, the “mean percentage of control growth” value is reported as 47 percentage of control growth.

Still in this test, the particulars now being: 25 μM; third passage; control 5 μg/mL human holo-transferrin.
Glutamine•Ferric Chloride: the “mean percentage of control growth” value is on record as 36 percentage of control growth.
Same read-out and setting: to Glycine•Ferric Chloride belongs 34 percentage of control growth; to Morpholine•Ferric Chloride, 54 percentage of control growth.
For Asparagine•Ferric Chloride, the “mean percentage of control growth” value was 36 percentage of control growth.
Take `O=C(O)CN(CC(=O)O)CC(=O)O` [Nitriloacetic Acid]: the “mean percentage of control growth” value is 0 percentage of control growth.
For the molecule `Cc1occc(=O)c1O.[Cl][Fe]([Cl])[Cl]` [3-Hydroxy-2-Methyl-4-Pyrone•Ferric Chloride], the “mean percentage of control growth” value is 60 percentage of control growth.
Regarding 2-Hydroxynicotinic Acid•Ferric Chloride, the “mean percentage of control growth” value is 64 percentage of control growth.
Turning to `O=[N+]([O-])c1ncccc1O.[Cl][Fe]([Cl])[Cl]` [3-Hydroxy-2-Nitropyridine•Ferric Chloride], the “mean percentage of control growth” value is recorded as 52 percentage of control growth.

Staying with this test, now noted: 50 μM; third passage.
Glutamine•Ferric Chloride: the “mean percentage of control growth” value was 55 percentage of control growth.
On the same count and under the same terms, to Glycine•Ferric Chloride belongs 61 percentage of control growth; to Morpholine•Ferric Chloride, 64 percentage of control growth.
Asparagine•Ferric Chloride: the “mean percentage of control growth” value is on record as 51 percentage of control growth.
Same read-out and setting: the result for `O=C(O)CN(CC(=O)O)CC(=O)O` [Nitriloacetic Acid] reads 0 percentage of control growth; that for `Cc1occc(=O)c1O.[Cl][Fe]([Cl])[Cl]` [3-Hydroxy-2-Methyl-4-Pyrone•Ferric Chloride], 71 percentage of control growth.
The same measure, in the same setting: to 2-Hydroxynicotinic Acid•Ferric Chloride belongs 82 percentage of control growth; to `O=[N+]([O-])c1ncccc1O.[Cl][Fe]([Cl])[Cl]` [3-Hydroxy-2-Nitropyridine•Ferric Chloride], 62 percentage of control growth.

Staying with this test, now noted: 100 μM; third passage.
As to Glutamine•Ferric Chloride, the “mean percentage of control growth” value is reported as 65 percentage of control growth.
For the molecule Glycine•Ferric Chloride, the “mean percentage of control growth” value was 56 percentage of control growth.
Still for that read-out and setting: to Morpholine•Ferric Chloride belongs 81 percentage of control growth; to Asparagine•Ferric Chloride, 54 percentage of control growth.
Same read-out and setting: to `O=C(O)CN(CC(=O)O)CC(=O)O` [Nitriloacetic Acid] belongs 0 percentage of control growth.
Still for that read-out and setting: to `Cc1occc(=O)c1O.[Cl][Fe]([Cl])[Cl]` [3-Hydroxy-2-Methyl-4-Pyrone•Ferric Chloride] belongs 75 percentage of control growth; to 2-Hydroxynicotinic Acid•Ferric Chloride, 85 percentage of control growth; to `O=[N+]([O-])c1ncccc1O.[Cl][Fe]([Cl])[Cl]` [3-Hydroxy-2-Nitropyridine•Ferric Chloride], 72 percentage of control growth.

For another test, the system named is 293 cells. As to the kind of experiment: Effect of replacement compounds on the growth of 293 cells in 293 SFM without transferrin, three passages. The class given is cell-based, human. The following applies: 25 μM; third passage; control 5 μg/mL human holo-transferrin; iron equimolar where combined. The procedure: Semi-confluent adherent cultures of 293 Cells (ATCC, CRL 1573) are readily adapted to suspension culture. The cells are first detached with a solution of Trypsin-EDTA (0.05% Trypsin, 0.53 mM Na4EDTA), and then resuspended in conventional medium supplemented with 10% FBS to inhibit the trypsin. The resuspended cells are centrifuged at 200×g for five minutes.
The initial seeding density of the 293 cells after conversion to suspension culture is 1×10^6 cells/mL. The cells are shaken on a rotary shaker at 150 rpm in a 37° C. incubator equilibrated with 8% CO2-92% air. […] Because 293 cells have a tendency to aggregate, the cells can be vortexed vigorously for approximately 45 seconds to obtain a predominantly single cell suspension at the time of passaging and counting. After several passages in suspension culture, the maximum achievable density can be determined.
For replacement compound evaluation, 293 cells were established in 125 mL shaker flasks at an initial viable seeding density of 2×10^5 cells/mL in a final volume of 20 mL. All cultures were maintained at 37° C. in humidified air containing 8% CO2. To eliminate transferrin carry-over effects, cells were subcultured at 4 day intervals for a total of three passages. At each subculturing, cells were seeded at a density of 2×10^5 cells/mL. Positive control cultures contained 5 μg/mL human holo-transferrin while negative control cultures were established in the absence of either transferrin or replacement compound. Replacement compound stocks were prepared at 0.1M-0.2M in ddH2O and solubilized when necessary using 5N NaOH or HCl. Iron complexes were established using 0.2 M replacement compound and iron stocks mixed 1:1 (v/v) and incubated for 5-10 minutes at 22° C. All solutions containing replacement compounds were filter sterilized using a 0.22 μm Millex-GV filter prior to addition to transferrin and serum-free media.
Except where noted, replacement compounds were evaluated either alone or in combination with ferric chloride or ferrous sulfate at 25 μM, 50 μM and 100 μM. When used in combination, the replacement compounds were used in equimolar concentration with iron ions. Values in Table 4 represent the mean percentage of control growth for duplicate cultures determined at the third passage.
When added to the medium formulation uncomplexed, the replacement compound is listed alone, when added as a complex with a transition metal, the source of the transition metal is listed with the replacement compound.
As to Sorbitol•Ferrous Sulfate, the “mean percentage of control growth” value is recorded as 58 percentage of control growth.
With Glycine•Ferric Chloride, the “mean percentage of control growth” value is 81 percentage of control growth.
The same measure, in the same setting: the result for Acetohydroxamic Acid•Ferric Chloride reads 83 percentage of control growth.
The same measure, in the same setting: to Glutamic Acid•Ferric Chloride belongs 102 percentage of control growth.
In the case of `[O-][n+]1cccc(O)c1` [3-Hydroxypyridine-N-Oxide], the “mean percentage of control growth” value was 4 percentage of control growth.
Same read-out and setting: the result for Nitriloacetic Acid•Ferrous Sulfate reads 75 percentage of control growth; that for `[Cl][Fe]([Cl])[Cl].c1ccc(-c2ccccn2)nc1` [2,2-Dipyridyl•Ferric Chloride], 51 percentage of control growth; that for `CC(=O)N[C@@H](CS)C(=O)O.[Cl][Fe]([Cl])[Cl]` [N-Acetyl-Cysteine•Ferric Chloride], 88 percentage of control growth.
Take Mimosine•Ferric Chloride: the “mean percentage of control growth” value is 64 percentage of control growth.
Same read-out and setting: the result for `O=C(O)c1ccccn1.O=S(=O)([O-])[O-].[Fe+2]` [2-Pyridinecarboxylic Acid•Ferrous Sulfate] reads 67 percentage of control growth; that for Myo-lnositol•Ferric Chloride, 79 percentage of control growth.

The same test, now with this note: 50 μM; third passage; control 5 μg/mL human holo-transferrin.
Consider Sorbitol•Ferrous Sulfate, for which the “mean percentage of control growth” value is 69 percentage of control growth.
For Glycine•Ferric Chloride, the “mean percentage of control growth” value is listed as 71 percentage of control growth.
On the same count and under the same terms, the result for Acetohydroxamic Acid•Ferric Chloride reads 22 percentage of control growth; that for Glutamic Acid•Ferric Chloride, 68 percentage of control growth.
Turning to `[O-][n+]1cccc(O)c1` [3-Hydroxypyridine-N-Oxide], the “mean percentage of control growth” value is reported as 4 percentage of control growth.
For Nitriloacetic Acid•Ferrous Sulfate, the “mean percentage of control growth” value is listed as 95 percentage of control growth.
On the same count and under the same terms, to `[Cl][Fe]([Cl])[Cl].c1ccc(-c2ccccn2)nc1` [2,2-Dipyridyl•Ferric Chloride] belongs 96 percentage of control growth; to `CC(=O)N[C@@H](CS)C(=O)O.[Cl][Fe]([Cl])[Cl]` [N-Acetyl-Cysteine•Ferric Chloride], 82 percentage of control growth; to Mimosine•Ferric Chloride, 55 percentage of control growth.
`O=C(O)c1ccccn1.O=S(=O)([O-])[O-].[Fe+2]` [2-Pyridinecarboxylic Acid•Ferrous Sulfate]: the “mean percentage of control growth” value is on record as 48 percentage of control growth.
As for Myo-lnositol•Ferric Chloride, the “mean percentage of control growth” value is 87 percentage of control growth.

Staying with this test, now noted: 100 μM; third passage; control 5 μg/mL human holo-transferrin.
For the molecule Sorbitol•Ferrous Sulfate, the “mean percentage of control growth” value is 83 percentage of control growth.
Glycine•Ferric Chloride: the “mean percentage of control growth” value is reported as 72 percentage of control growth.
Regarding Acetohydroxamic Acid•Ferric Chloride, the “mean percentage of control growth” value was 0 percentage of control growth.
On the same count and under the same terms, the result for Glutamic Acid•Ferric Chloride reads 83 percentage of control growth.
Still for that read-out and setting: the result for `[O-][n+]1cccc(O)c1` [3-Hydroxypyridine-N-Oxide] reads 4 percentage of control growth; that for Nitriloacetic Acid•Ferrous Sulfate, 0 percentage of control growth.
Same read-out and setting: to `[Cl][Fe]([Cl])[Cl].c1ccc(-c2ccccn2)nc1` [2,2-Dipyridyl•Ferric Chloride] belongs 0 percentage of control growth.
With `CC(=O)N[C@@H](CS)C(=O)O.[Cl][Fe]([Cl])[Cl]` [N-Acetyl-Cysteine•Ferric Chloride], the “mean percentage of control growth” value is on record as 52 percentage of control growth.
Consider Mimosine•Ferric Chloride, for which the “mean percentage of control growth” value was 80 percentage of control growth.
On the same count and under the same terms, to `O=C(O)c1ccccn1.O=S(=O)([O-])[O-].[Fe+2]` [2-Pyridinecarboxylic Acid•Ferrous Sulfate] belongs 0 percentage of control growth; to 2-Hydroxynicotinic Acid•Ferric Chloride, 0 percentage of control growth.
As to Myo-lnositol•Ferric Chloride, the “mean percentage of control growth” value is reported as 85 percentage of control growth.

The test is the same for the next values; noted with them: 150 μM; third passage.
In the case of 2-Hydroxynicotinic Acid•Ferric Chloride, the “mean percentage of control growth” value is given as 0 percentage of control growth.

Staying with this test, now noted: 200 μM; third passage.
Consider 2-Hydroxynicotinic Acid•Ferric Chloride, for which the “mean percentage of control growth” value is 99 percentage of control growth.
